Reference: PubChem BioAssay (NCI)
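These data come from cells grown in 96-well plates and exposed to compound for 48 hours at five concentrations. The concentration for full growth arrest is given as TGI.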

Columns and labels:
Experiment in all cases: growth of human tumour cells (NCI), 48 h
[1] = test system: HCC-2998 colon
[2] = test system: M14 melanoma
[3] = test system: SN12C renal
[4] = test system: A549 NSCLC
[5] = test system: NCI-H23 lung
[6] = test system: HOP-62 NSCLC
[7] = test system: MCF7 breast
[8] = test system: SK-MEL-28 melanoma
[9] = test system: LOX IMVI melanoma
[10] = test system: KM12 colon
[11] = test system: DU-145 prostate
[12] = test system: HCT-15 colon
[13] = test system: UACC-257 melanoma
[14] = test system: HT29 colon
[15] = test system: MALME-3M melanoma
[16] = test system: MDA-MB-435
[17] = test system: BT-549 breast
[18] = test system: UO-31 renal
[19] = test system: NCI-H226 lung
[20] = test system: EKVX NSCLC
[21] = test system: SW-620 colon
[22] = test system: HS 578T breast
[23] = test system: MOLT-4 leukemia
[24] = test system: T-47D breast
[25] = test system: SF-539 CNS
[26] = test system: NCI-H460 lung
[27] = test system: CAKI-1 renal
[28] = test system: RPMI-8226 leukemia
[29] = test system: SK-OV-3 ovarian
[30] = test system: SK-MEL-5 melanoma
[31] = test system: CCRF-CEM leukemia
[32] = test system: K-562 leukemia
[33] = test system: COLO 205 colon
[34] = test system: PC-3 prostate
[35] = test system: OVCAR-8 ovarian
[36] = test system: SR leukemia
[37] = test system: SNB-19 CNS
[38] = test system: SF-268 CNS
[39] = test system: A498 renal
[40] = test system: 786-0 renal
[41] = test system: ACHN renal
[42] = test system: IGROV1 ovarian
[43] = test system: HCT-116 colon
[44] = test system: MDA-MB-231 breast
[45] = test system: MDA-N
[46] = test system: UACC-62 melanoma
[47] = test system: TK-10 renal
[48] = test system: NCI-H522 lung
[49] = test system: HL-60(TB) leukemia
[50] = test system: SF-295 CNS
[51] = test system: OVCAR-4 ovarian
[52] = test system: SNB-75 CNS
[53] = test system: HOP-92 NSCLC
[54] = test system: OVCAR-3 ovarian
[55] = test system: RXF 393 renal
[56] = test system: NCI/ADR-RES ovarian
[57] = test system: SK-MEL-2 melanoma
[58] = test system: U251 CNS
[59] = test system: OVCAR-5 ovarian

`COc1cc2c(c(OC)c1)C(C)=NC(C)C2` (stereo not given) was tested, and the TGI [1] was > 100 µM, the TGI [2] was > 100 µM and the TGI [3] was > 100 µM. For the same molecule, the TGI [4] was > 100 µM, the TGI [5] was > 100 µM and the TGI [6] was > 100 µM. For the same molecule, the TGI [7] was > 100 µM, the TGI [8] was > 100 µM and the TGI [9] was > 100 µM. For the same molecule, the TGI [10] was > 100 µM, the TGI [11] was > 100 µM and the TGI [12] was > 100 µM. For the same molecule, the TGI [13] was > 100 µM, the TGI [14] was > 100 µM and the TGI [15] was > 100 µM. For the same molecule, the TGI [16] was > 100 µM, the TGI [17] was > 100 µM and the TGI [18] was > 100 µM. For the same molecule, the TGI [19] was > 100 µM, the TGI [20] was > 100 µM and the TGI [21] was > 100 µM. The TGI [22] was > 100 µM, the TGI [23] was > 100 µM and the TGI [24] was > 100 µM. The TGI [25] was > 100 µM, the TGI [26] was > 100 µM and the TGI [27] was > 100 µM. For the same molecule, the TGI [28] was > 100 µM, the TGI [29] was > 100 µM and the TGI [30] was > 100 µM. For the same molecule, the TGI [31] was > 100 µM, the TGI [32] was > 100 µM and the TGI [33] was > 100 µM. The TGI [34] was > 100 µM, the TGI [35] was > 100 µM and the TGI [36] was > 100 µM. For the same molecule, the TGI [37] was > 100 µM, the TGI [38] was > 100 µM and the TGI [39] was > 100 µM. The TGI [40] was > 100 µM, the TGI [41] was > 100 µM and the TGI [42] was > 100 µM. For the same molecule, the TGI [43] was > 100 µM, the TGI [44] was > 100 µM and the TGI [45] was > 100 µM. For the same molecule, the TGI [46] was > 100 µM, the TGI [47] was > 100 µM and the TGI [48] was > 100 µM. The TGI [49] was > 100 µM and the TGI [50] was > 100 µM.
With `COC(=O)c1ccccc1C1CN=NC12Cc1c(C)cccc1C2=O` (stereo not given) the TGI [51] was > 100 µM, the TGI [52] was > 100 µM and the TGI [1] was > 100 µM. The TGI [2] was > 100 µM, the TGI [3] was > 100 µM and the TGI [4] was > 100 µM. For the same molecule, the TGI [5] was > 100 µM, the TGI [6] was > 100 µM and the TGI [7] was > 100 µM. The TGI [8] was > 100 µM, the TGI [9] was > 100 µM and the TGI [10] was > 100 µM. For the same molecule, the TGI [11] was > 100 µM, the TGI [12] was > 100 µM and the TGI [13] was > 100 µM. The TGI [14] was > 100 µM, the TGI [53] was > 100 µM and the TGI [15] was > 100 µM. For the same molecule, the TGI [16] was > 100 µM, the TGI [17] was > 100 µM and the TGI [54] was > 100 µM. The TGI [18] was > 100 µM, the TGI [55] was > 100 µM and the TGI [19] was > 100 µM. For the same molecule, the TGI [20] was > 100 µM, the TGI [21] was > 100 µM and the TGI [22] was > 100 µM. The TGI [23] was > 100 µM, the TGI [24] was > 100 µM and the TGI [25] was > 100 µM. The TGI [56] was > 100 µM, the TGI [26] was > 100 µM and the TGI [27] was > 100 µM. The TGI [28] was > 100 µM, the TGI [29] was > 100 µM and the TGI [30] was > 100 µM. The TGI [31] was > 100 µM, the TGI [32] was > 100 µM and the TGI [33] was > 100 µM. The TGI [35] was > 100 µM, the TGI [36] was > 100 µM and the TGI [37] was > 100 µM. For the same molecule, the TGI [38] was > 100 µM, the TGI [57] was > 100 µM and the TGI [39] was > 100 µM. The TGI [40] was > 100 µM, the TGI [41] was > 100 µM and the TGI [42] was > 100 µM. For the same molecule, the TGI [58] was > 100 µM, the TGI [43] was > 100 µM and the TGI [44] was > 100 µM. For the same molecule, the TGI [45] was > 100 µM, the TGI [46] was > 100 µM and the TGI [47] was > 100 µM. The TGI [48] was > 100 µM, the TGI [59] was > 100 µM and the TGI [49] was > 100 µM. For the same molecule, the TGI [50] was > 100 µM.
With `O=C(Nc1ccc(Cl)cc1)Oc1ccc(C(=S)Nc2ccc(Br)cc2)cc1` the TGI [51] was 75.8 µM, the TGI [1] was 33.6 µM and the TGI [2] was 36 µM. For the same molecule, the TGI [4] was > 100 µM, the TGI [5] was 63.9 µM and the TGI [6] was > 100 µM. For the same molecule, the TGI [7] was 70.2 µM, the TGI [8] was 48.4 µM and the TGI [9] was 9.32 µM. For the same molecule, the TGI [10] was 25.5 µM, the TGI [11] was > 100 µM and the TGI [12] was 35.7 µM. For the same molecule, the TGI [13] was > 100 µM, the TGI [14] was 18.1 µM and the TGI [15] was 89.2 µM. For the same molecule, the TGI [16] was 38.6 µM, the TGI [17] was 54.1 µM and the TGI [54] was 54.5 µM. For the same molecule, the TGI [18] was > 100 µM, the TGI [20] was 19.6 µM and the TGI [21] was > 100 µM. The TGI [22] was > 100 µM, the TGI [23] was 46.2 µM and the TGI [24] was 88.9 µM. The TGI [25] was 39.7 µM, the TGI [56] was 61.4 µM and the TGI [26] was > 100 µM. For the same molecule, the TGI [27] was 35.8 µM, the TGI [28] was > 100 µM and the TGI [29] was > 100 µM. For the same molecule, the TGI [30] was 23 µM, the TGI [31] was 20.9 µM and the TGI [32] was 57.2 µM. For the same molecule, the TGI [33] was 23.6 µM, the TGI [34] was > 100 µM and the TGI [35] was 22.7 µM. For the same molecule, the TGI [36] was 36.7 µM, the TGI [37] was > 100 µM and the TGI [38] was > 100 µM. The TGI [57] was 27.7 µM, the TGI [39] was 54.9 µM and the TGI [40] was 48.6 µM. The TGI [41] was > 100 µM, the TGI [42] was 25 µM and the TGI [58] was 75.5 µM. For the same molecule, the TGI [43] was 54.4 µM, the TGI [45] was 67.2 µM and the TGI [46] was 12.2 µM. The TGI [48] was 37.2 µM, the TGI [59] was 38.4 µM and the TGI [49] was 18.1 µM. For the same molecule, the TGI [50] was > 100 µM.
